Laboratory results taken from patent US12630524B2, “Pleuromutilin in derivatives for treating viral infections” (ARIVA MED GMBH, priority 2020, dated 2026).
≈ marks a conversion by molar mass, not a printed value. Read-outs that look alike come from different tables or passages of the source.

Experiments:
[1] = test system: Staphylococcus aureus ATCC49951; assay: Broth microdilution MIC (CLSI)
[2] = test system: Staphylococcus aureus cfr (+); assay: Broth microdilution MIC (CLSI)
[3] = test system: Staphylococcus aureus vga(A) (+); assay: Broth microdilution MIC (CLSI)
[4] = test system: Streptococcus pneumoniae ATCC49619; assay: Broth microdilution MIC (CLSI)
[5] = test system: Streptococcus agalactiae lsa(E); assay: Broth microdilution MIC (CLSI)
[6] = test system: alpha coronavirus 229E (HCoV-229E or CoV229E); assay: Anti-coronavirus cytoprotection assay (inhibition of virus-induced CPE); assay type: cell-based, human corona virus (CoV229E); conditions: for reduction of viral CPE: MRC-5 / CoV229E; for EC50: Human coronavirus 229E, MRC5, 144 h
Procedure: Objective: The assay measured the inhibition of virus-induced cytopathic effects (CPE) and cell viability following alpha coronavirus 229E (HCoV-229E or CoV229E) in MRC-5 cells 6 days post infections with the virus by various concentrations of the investigated compounds.
Following incubation at 37° C. and at 5% CO2 for 6 days, cell viability was measured by XTT tetrazolium dye staining. The optical density of the cell culture plate was determined spectrophotometrically at 450 and 650 nm. Percent reduction of the virus-infected cells and the percent cell viability of uninfected drug control wells were calculated to determine the effective concentration at which 50% of cytopathic effect was inhibited (EC50) and the cytotoxic concentration (TC50) using four parameter curve fit analysis. The antiviral compound Remdesivir served as positive control.

[7] = test system: human respiratory syncytial virus (strain RSVA2); assay: Anti-RSV cytoprotection assay (strain RSVA2); assay type: cell-based; conditions: for reduction of viral CPE: HEp2 / RSVA2; for EC50: human respiratory syncytial virus, HEp-2, 144 h, HEp2 cells infected with RSVA2, 6 days post infection, XTT
[8] = Cell viability of uninfected HEp2 drug control wells (XTT), RSVA2 assay; assay type: cell-based, human; conditions: human, HEp2 cells (uninfected drug control wells); HEp2 cells, RSVA2 assay; read-out: TC50
HEp2 cells = assay: as above; assay type: cell-based, human; conditions: HEp2
[9] = test system: respiratory syncytial virus (RSV ALONG); assay: Anti-RSV cytoprotection assay, strain RSV ALONG; assay type: cell-based
[10] = test system: respiratory syncytial virus (RSV B18537); assay: Anti-RSV cytoprotection assay, strain RSV B18537; assay type: cell-based
[11] = Cellular toxicity to HEp2 cells, RSV ALONG / RSV B18537 assays; assay type: cell-based; conditions: human, RSV ALONG table, read-out: TC50 (the source's name)
[12] = test system: Measles virus strain Edmonston; assay: microbe, parasite or virus in culture; assay type: cell-based; conditions: for EC50: Measles morbillivirus, HeLa
MRC-5 cells = conditions: for cytotoxic effect on the viability of the cell control: MRC-5
in vitro [13] = conditions: human
in vitro [14] = conditions: human; remark: listed apart in the source
[15] = Metabolic stability in primary mouse hepatocytes; conditions: 1 μg/mL, 4 hours, 37° C.
[16] = Metabolic stability in primary human hepatocytes; conditions: 1 μg/mL, 4 hours, 37° C.
[17] = test system: influenza A virus strain (PR8); conditions: influenza A PR8, concentration of 2 mg/mL; cited from earlier work
polio virus = conditions: cited from earlier work
[18] = test system: herpes simplex type 1 (HSV-1) virus; conditions: cited from earlier work
[19] = test system: vesicular stomatitis virus (VSV); conditions: cited from earlier work
HeLa cells = assay: Cellular toxicity to HeLa cells, measles assay; conditions: Ribavirin in μg/mL
[20] = test system: influenza A virus, porcine reproductive and respiratory syndrome virus (PRRSV) type 1 and 2; conditions: viral up-take assay 4 hours post inoculation, WO 2009/106839; cited from earlier work
[21] = Staphylococcus aureus cfr (+) (n = 2), Lefamulin resistant
[22] = Staphylococcus aureus vga(A) (+), Lefamulin resistant
[23] = Streptococcus agalactiae lsa(E) (n = 2), Lefamulin resistant
[24] = MRC-5 cells infected with CoV229E, 6 days post infection, XTT, read-out: EC50
[25] = Staphylococcus aureus, ATCC49951

## 12-epi-12-desvinyl-14-O-[(azepan-4-ylsulfanyl)-acetyl]-12-((E)-2-pyridin-3-yl-ethenyl) mutilin hydrochloride [Example 154, reference compound]
[1]; Staphylococcus aureus ATCC49951, CAMHB
  MIC: ≤0.03 µg/mL
[2]; [21]
  MIC: 0.5 to 4 µg/mL
[3]; [22]
  MIC: 2 to 4 µg/mL
[4]
  MIC: ≤0.03 µg/mL
[5]; [23]
  MIC: 4 to 8 µg/mL

## Cc1nccnc1/C=C/[C@@]1(C)C[C@@H](OC(=O)CSC2CCNCC2)[C@]2(C)[C@H](C)CC[C@]3(CCC(=O)[C@H]32)[C@@H](C)[C@@H]1O [BC 9842, 12-epi-12-desvinyl-14-O-[(Piperidin-4-ylsulfanyl]-acetyl]-12-[2-(3-methyl-pyrazin-2-yl)-ethenyl]-mutilin]
[6]; 5 μM
  reduction of viral CPE: 100%
[6]; 10 μM
  reduction of viral CPE: 100%
[6]; [24]
  EC50: 1.92 µM
[7]; 5 μM
  reduction of viral CPE: 52.85%
[7]; 10 μM
  reduction of viral CPE: 69.33%
[7]
  EC50: 4.58 µM
[8]
  CC50 at 6 days: 22.4 µM
HEp2 cells; 5 μM
  cytotoxic effect on the viability of the cell control: no cytotoxic effect
HEp2 cells; 10 μM
  cytotoxic effect on the viability of the cell control: no cytotoxic effect
HEp2 cells; 50 μM
  cytotoxic effect on the viability of the cell control: cytotoxic effect
[9]; human respiratory syncytial virus, HEp-2
  EC50: > 22400 nM
[10]; human respiratory syncytial virus, HEp-2, HEp2 cells infected with RSV B18537, MOI 0.001
  EC50: 6.77 µM
[11]
  CC50: 22.4 µM
[12]; 10 μM, HeLa / Measles virus
  reduction of viral CPE: 69%
[12]
  EC50: 5.36 µM
MRC-5 cells; 5 μM
  cytotoxic effect on the viability of the cell control: no cytotoxic effect
MRC-5 cells; 10 μM
  cytotoxic effect on the viability of the cell control: no cytotoxic effect
MRC-5 cells; 50 μM
  cytotoxic effect on the viability of the cell control: cytotoxic effect
In vitro [13]
  CC50 at 6 days: 22.4 µM
In vitro [14]
  CC50: 24.1 µM
[1]; [25]
  MIC: ≤ 0.03 µg/mL
[2]; Staphylococcus aureus
  MIC: 1 to 2 µg/mL (≈ 1.75 to 3.51 µM)
[2]; [21]
  MIC: ≤ 4 µg/mL
[3]; Staphylococcus aureus
  MIC: 4 µg/mL (≈ 7.02 µM)
[3]; [22]
  MIC: ≤ 4 µg/mL
[4]
  MIC: ≤ 0.03 µg/mL
[5]; Streptococcus agalactiae
  MIC: 0.5 to 1 µg/mL (≈ 0.877 to 1.75 µM)
[5]; [23]
  MIC: ≤ 4 µg/mL
[15]
  Metabolic stability against primary hepatocytes [% parent compound]: > 60%
[15]; listed as BC-9842
  Metabolic stability against primary hepatocytes [% parent compound]: > 60%
[15]; listed as BC-¬9842
  Metabolic stability against primary hepatocytes [% parent compound]: 63.8%
[16]
  Metabolic stability against primary hepatocytes [% parent compound]: > 20%
[16]; listed as BC-9842
  Metabolic stability against primary hepatocytes [% parent compound]: > 20%
[16]; listed as BC-¬9842
  Metabolic stability against primary hepatocytes [% parent compound]: 24.7%

## C=C[C@]1(C)C[C@@H](OC(=O)CS[C@@H]2CC[C@@H](N)C[C@H]2O)[C@]2(C)[C@H](C)CC[C@]3(CCC(=O)[C@H]32)[C@@H](C)[C@@H]1O [Lefamulin, reference compound]
[1]; [25]
  MIC: ≤ 0.03 µg/mL
[2]; Staphylococcus aureus
  MIC: 16 µg/mL (≈ 31.5 µM)
[3]; Staphylococcus aureus
  MIC: 8 µg/mL (≈ 15.8 µM)
[4]
  MIC: ≤ 0.03 µg/mL
[5]; Streptococcus agalactiae
  MIC: 16 µg/mL (≈ 31.5 µM)

## C=C[C@]1(C)C[C@@H](OC(=O)CO)[C@]2(C)[C@H](C)CC[C@]3(CCC(=O)[C@H]32)[C@@H](C)[C@@H]1O [Pleuromutilin]
[17]
  antiviral activity: antiviral activity
Polio virus
  antiviral activity: did not show antiviral activity
[18]
  CPE50 (concentration conferring 50% protection of the cytopathic effect induced by HSV-1): 15 µg/mL
[18]; read-out: CPE50 (concentration conferring 50% protection of the cytopathic effect induced by HSV-1)
  EC50: 40 µM
[19]
  activity against vesicular stomatitis virus: activity

## CCC(CC)COC(=O)[C@H](C)N[P@](=O)(OC[C@H]1O[C@@](C#N)(c2ccc3c(N)ncnn23)[C@H](O)[C@@H]1O)Oc1ccccc1 [Remdesivir, reference compound]
[6]
  EC50: 0.11 µM
MRC-5 cells; human
  CC50: > 5 µM

## NC(=O)c1ncn([C@@H]2O[C@H](CO)[C@@H](O)[C@H]2O)n1 [Ribavirin, reference compound]
[12]
  EC50: 1.88 µg/mL
HeLa cells
  TC50: 21.6 µg/mL (≈ 88.4 µM)

## C=C[C@]1(C)C[C@@H](OC(=O)CSCCN(CC)CC)[C@]2(C)[C@H](C)CC[C@]3(CCC(=O)[C@H]32)[C@@H](C)[C@@H]1O [Tiamulin, reference compound]
[6]; 10 μM
  reduction of viral CPE: 10.53%
[6]; 50 μM
  reduction of viral CPE: 81.68%
[6]; [24]
  EC50: 24.4 µM
[7]; 10 μM
  reduction of viral CPE: 16.76%
[7]; 50 μM
  reduction of viral CPE: 43.28%
[7]
  EC50: > 67.9 µM
HEp2 cells; 10 μM
  viability (cell control): 84%
HEp2 cells; 50 μM
  viability (cell control): 70.0%
MRC-5 cells; 10 μM
  cytotoxic effect on the viability of the cell control: no cytotoxic effect
MRC-5 cells; 50 μM
  cytotoxic effect on the viability of the cell control: cytotoxic effect

## C=C[C@]1(C)C[C@@H](OC(=O)CSC(C)(C)CNC(=O)[C@H](N)C(C)C)[C@]2(C)[C@H](C)CC[C@]3(CCC(=O)[C@H]32)[C@@H](C)[C@@H]1O [Valnemulin]
[20]
  antiviral activity: did not exhibit antiviral activity

## TMC353121 [reference compound]
[9]; RSV A strain (RSV ALONG), HEp2, text, read-out: EC50
  EC50: 0.01 nM
[10]; RSV B strain (RSV B18537), HEp2, text
  EC50: 1e-05 µM
